Results reported in patent US20100068204A1, “4-ARYLOXYQUINOLIN-2(1H)-ONES AS MTOR KINASE AND PI3 KINASE INHIBITORS, FOR USE AS ANTI-CANCER AGENTS” (Wyeth, priority 2008, published 2010).
pIC50: −log10 of the molar value. Like-named read-outs stand apart in the source and are kept apart here.

What was measured:
PI3Kα = PI3Kα (Homo sapiens, UniProt P42336); assay: PI3Kα fluorescence polarization assay; type: biochemical; conditions: 20 μM PIP2, 25 μM ATP
How it was run: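 Kinase reaction in 20 mM HEPES pH 7.5, 2 mM MgCl2, 0.05% CHAPS with final 20 μM diC8-PIP2 and 25 μM ATP, 30-60 min at room temperature. Stopped with 10 nM TAMRA-labelled probe plus 2.5 uM GST-murine GRP; fluorescence polarization read after 90-110 minutes.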

[1] = system: LNCap prostate tumor cells; assay: In vitro cell growth assay (MTS), LNCap; type: cell-based, human; conditions: three days after drug treatment
How it was run: (§1)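 Tumor cells plated ~3000/well; inhibitors in DMSO added one day later (final DMSO 0.25%). After three days of treatment, viable cell density read by MTS conversion, absorbance at 490 nm. Effect expressed relative to untreated control growth.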

human TOR (FLAG-TOR) = human TOR (FLAG-TOR) (Homo sapiens, UniProt P42345); assay: mTOR enzyme assay (DELFIA format, purified enzyme); type: biochemical; conditions: 800 ng/ml FLAG-TOR, 100 μM ATP, 1.25 μM His6-S6K; read-out: mTOR Kinase IC50
[2] = system: MDA468 breast tumor cells; assay: In vitro cell growth assay (MTS), MDA468; type: cell-based, human; conditions: three days after drug treatment
How it was run: as §1

[3] = system: human tumor xenograft models; conditions: cited from earlier work

Chain of PI3Kα (P42336 whole entry, species assumed): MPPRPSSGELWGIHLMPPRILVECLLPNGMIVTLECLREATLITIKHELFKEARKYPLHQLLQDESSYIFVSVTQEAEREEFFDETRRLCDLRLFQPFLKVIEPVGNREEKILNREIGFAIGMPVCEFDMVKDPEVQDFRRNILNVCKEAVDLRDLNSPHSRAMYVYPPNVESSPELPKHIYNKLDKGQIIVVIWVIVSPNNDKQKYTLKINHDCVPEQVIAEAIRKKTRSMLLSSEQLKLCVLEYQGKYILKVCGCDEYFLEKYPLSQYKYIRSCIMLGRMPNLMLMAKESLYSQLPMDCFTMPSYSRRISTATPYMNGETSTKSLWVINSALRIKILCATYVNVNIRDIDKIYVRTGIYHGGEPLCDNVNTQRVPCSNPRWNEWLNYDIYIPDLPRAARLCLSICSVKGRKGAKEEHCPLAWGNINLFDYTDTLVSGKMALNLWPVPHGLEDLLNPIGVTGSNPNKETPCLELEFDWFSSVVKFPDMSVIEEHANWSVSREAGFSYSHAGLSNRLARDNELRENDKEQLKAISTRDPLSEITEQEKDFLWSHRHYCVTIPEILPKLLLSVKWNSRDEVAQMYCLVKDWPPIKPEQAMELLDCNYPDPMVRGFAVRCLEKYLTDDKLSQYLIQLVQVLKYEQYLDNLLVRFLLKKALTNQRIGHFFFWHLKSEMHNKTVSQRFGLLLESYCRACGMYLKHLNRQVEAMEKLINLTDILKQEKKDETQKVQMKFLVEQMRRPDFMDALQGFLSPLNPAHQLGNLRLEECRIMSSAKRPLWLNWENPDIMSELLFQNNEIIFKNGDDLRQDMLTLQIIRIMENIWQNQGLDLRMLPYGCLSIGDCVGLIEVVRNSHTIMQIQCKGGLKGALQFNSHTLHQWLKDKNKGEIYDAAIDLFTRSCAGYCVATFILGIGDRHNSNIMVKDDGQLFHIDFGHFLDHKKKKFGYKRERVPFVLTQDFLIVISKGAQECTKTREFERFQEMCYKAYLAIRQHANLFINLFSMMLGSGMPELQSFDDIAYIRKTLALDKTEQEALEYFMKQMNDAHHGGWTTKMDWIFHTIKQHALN
Chain of PI3Kα (P27986 whole entry partner, species assumed): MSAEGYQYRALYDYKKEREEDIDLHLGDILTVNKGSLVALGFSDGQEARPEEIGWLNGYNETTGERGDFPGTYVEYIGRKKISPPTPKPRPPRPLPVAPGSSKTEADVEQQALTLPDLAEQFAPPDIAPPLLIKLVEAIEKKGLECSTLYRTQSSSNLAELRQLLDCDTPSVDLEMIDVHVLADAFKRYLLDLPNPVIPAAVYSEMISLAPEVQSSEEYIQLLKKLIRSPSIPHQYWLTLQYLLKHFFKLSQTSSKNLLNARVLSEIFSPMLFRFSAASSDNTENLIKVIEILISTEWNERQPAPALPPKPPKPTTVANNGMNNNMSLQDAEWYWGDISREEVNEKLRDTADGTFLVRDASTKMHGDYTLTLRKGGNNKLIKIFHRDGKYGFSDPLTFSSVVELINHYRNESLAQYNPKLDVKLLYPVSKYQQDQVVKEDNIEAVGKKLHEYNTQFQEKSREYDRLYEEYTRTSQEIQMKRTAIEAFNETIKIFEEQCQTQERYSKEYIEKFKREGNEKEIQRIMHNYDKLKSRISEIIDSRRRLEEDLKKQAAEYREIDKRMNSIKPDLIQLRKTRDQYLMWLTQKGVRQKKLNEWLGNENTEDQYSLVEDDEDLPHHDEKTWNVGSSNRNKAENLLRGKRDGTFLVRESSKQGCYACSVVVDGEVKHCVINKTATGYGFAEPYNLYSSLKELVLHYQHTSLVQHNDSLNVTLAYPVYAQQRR

Compound	pIC50 (PI3Kα)	pIC50 ([1]; Homo sapiens, LNCaP, 72 h)	pIC50 (human TOR (FLAG-TOR))	pIC50 ([2]; Homo sapiens, 72 h)	melting point	activity in human tumor xenograft models ([3]; prostrate (PC-3) and glioblastoma (U-87))	activity in human tumor xenograft models ([3]; I.P. dosing in mice, U87MG, PC3, MDA-MB-468, MDA-MB-435, HCT 116, SKOV3, IGROV-1)	pIC50 [2]	pIC50 [1]
O=c1cc(Oc2ccccc2)c2ccccc2[nH]1	4.62	5.05	6.43	4.22	–	–	–	–	–
CC(=O)N1CCC(C(=O)Nc2ccc3[nH]c(=O)cc(Oc4ccccc4)c3c2)CC1	< 5.00	< 4.22	< 4.70	< 4.22	–	–	–	–	–
O=C(Cc1cccs1)Nc1ccc2[nH]c(=O)cc(Oc3ccccc3)c2c1	6.42	4.66	4.84	4.46	–	–	–	–	–
CN(C)CC(=O)Nc1ccc2[nH]c(=O)cc(Oc3ccccc3)c2c1	< 5.00	< 4.22	< 4.70	< 4.22	–	–	–	–	–
CC(C)(C)C(=O)Nc1ncccc1CNc1cccc(Oc2cc(=O)[nH]c3ccccc23)c1	5.39	5.89	7.40	5.55	–	–	–	–	–
CC(C)(C)OC(=O)NC1(CNc2cccc(Oc3cc(=O)[nH]c4ccccc34)c2)CCCC1	5.29	5.39	6.64	5.07	–	–	–	–	–
O=c1cc(Oc2cccc(NCc3ccc(-c4cccnc4)cc3)c2)c2ccccc2[nH]1	5.10	5.48	7.05	5.10	–	–	–	–	–
O=c1cc(Oc2cccc(NCc3ccc(-c4cccc(CO)n4)cc3)c2)c2ccccc2[nH]1	5.41	5.37	7.05	5.00	–	–	–	–	–
O=c1cc(Oc2cccc(NCC3CCN(Cc4ccccc4)CC3)c2)c2ccccc2[nH]1	5.02	5.52	6.74	5.39	–	–	–	–	–
Nc1nc(Cl)c(CNc2cccc(Oc3cc(=O)[nH]c4ccccc34)c2)c(Cl)n1	< 5.00	5.28	6.77	5.46	–	–	–	–	–
O=c1cc(Oc2cccc(NCc3ccc(Oc4ccc(F)cc4)cc3)c2)c2ccccc2[nH]1	< 5.00	5.28	5.46	4.92	–	–	–	–	–
Cn1ccc2cc(CNc3cccc(Oc4cc(=O)[nH]c5ccccc45)c3)ccc21	5.85	6.00	6.46	5.92	–	–	–	–	–
O=c1cc(Oc2ccc(-c3ccc(F)cc3)cc2)c2ccccc2[nH]1	5.02	< 4.22	4.80	< 4.22	–	–	–	–	–
NC(=O)c1ccc(Oc2cc(=O)[nH]c3ccccc23)cc1	< 5.00	< 4.22	5.74	4.64	–	–	–	–	–
Nc1ccc(-c2ccc3[nH]c(=O)cc(Oc4ccccc4)c3c2)cc1	5.18	4.74	< 4.70	4.22	–	–	–	–	–
CN1CCN(c2ccc(Oc3cc(=O)[nH]c4ccccc34)cc2)CC1	< 5.00	4.77	5.15	4.40	–	–	–	–	–
CN1CCN(c2ccc(-c3cccc(Oc4cc(=O)[nH]c5ccccc45)c3)cn2)CC1	< 5.00	5.40	6.68	5.05	–	–	–	–	–
O=c1cc(Oc2ccc(C3N=CCN3)cc2)c2ccccc2[nH]1 (stereo not drawn)	< 5.00	4.35	6.11	4.22	–	–	–	–	–
O=c1cc(Oc2ccc(C3=NCCCN3)cc2)c2ccccc2[nH]1	< 5.00	< 4.22	6.24	4.22	–	–	–	–	–
Nc1ccc(-c2cccc(Oc3cc(=O)[nH]c4ccccc34)c2)cn1	5.05	4.64	7.05	5.71	–	–	–	–	–
O=c1cc(Oc2cccc(-c3ccc(NCCN4CCOCC4)nc3)c2)c2ccccc2[nH]1	5.17	5.33	6.82	5.70	–	–	–	–	–
O=c1cc(Oc2cccc(F)c2)c2ccccc2[nH]1	< 5.00	< 4.22	5.95	< 4.22	–	–	–	–	–
COC(=O)c1cc(Oc2cc(=O)[nH]c3ccccc23)ccc1OC	< 5.00	5.10	5.89	< 4.22	–	–	–	–	–
O=c1cc(Oc2cccc3ccccc23)c2ccccc2[nH]1	< 5.00	< 4.22	6.64	< 4.22	–	–	–	–	–
O=c1cc(Oc2ccccc2C(F)(F)F)c2ccccc2[nH]1	6.51	< 4.22	5.78	< 4.22	–	–	–	–	–
NCc1ccc(Oc2cc(=O)[nH]c3ccccc23)cc1	< 5.00	4.92	5.40	4.46	–	–	–	–	–

Compound	pIC50 (PI3Kα)	pIC50 ([1]; Homo sapiens, LNCaP, 72 h)	pIC50 (human TOR (FLAG-TOR))	pIC50 ([2]; Homo sapiens, 72 h)	melting point	activity in human tumor xenograft models ([3]; prostrate (PC-3) and glioblastoma (U-87))	activity in human tumor xenograft models ([3]; I.P. dosing in mice, U87MG, PC3, MDA-MB-468, MDA-MB-435, HCT 116, SKOV3, IGROV-1)	pIC50 [2]	pIC50 [1]
O=c1cc(Oc2ccc(-c3ccc(NCCN4CCOCC4)nc3)cc2)c2ccccc2[nH]1	< 5.00	5.98	5.97	5.10	–	–	–	–	–
CN(C)CCCOc1ccc(-c2cccc(Oc3cc(=O)[nH]c4ccccc34)c2)cn1	< 5.00	5.42	7.10	5.00	–	–	–	–	–
O=c1cc(Oc2cccc(-c3cnn(CCN4CCOCC4)c3)c2)c2ccccc2[nH]1	< 5.00	5.66	6.85	5.00	–	–	–	–	–
CN1CCN(c2cc(-c3ccc(Oc4cc(=O)[nH]c5ccccc45)cc3)ccn2)CC1	5.05	6.10	6.25	5.92	–	–	–	–	–
O=c1cc(Oc2ccccc2)c2cc(Cl)ccc2[nH]1	5.29	4.89	5.17	< 4.22	–	–	–	–	–
COc1ccc(Oc2cc(=O)[nH]c3ccccc23)cc1	4.96	< 4.22	6.27	< 4.22	–	–	–	–	–
O=c1cc(Oc2ccc(F)cc2)c2ccccc2[nH]1	5.80	4.74	6.22	< 4.22	–	–	–	–	–
Cc1ccc(Oc2cc(=O)[nH]c3ccccc23)cc1	5.38	4.74	5.94	< 4.22	–	–	–	–	–
N#C[BH2-][n+]1cccc(CNc2cccc(Oc3cc(=O)[nH]c4ccccc34)c2)c1	5.13	5.64	7.52	5.38	–	–	–	–	–
CC(C)(C)CNc1ccc(CNc2cccc(Oc3cc(=O)[nH]c4ccccc34)c2)cn1	5.68	5.15	6.46	4.92	–	–	–	–	–
CNc1ncccc1CNc1cccc(Oc2cc(=O)[nH]c3ccccc23)c1	< 5.00	5.55	7.05	5.17	–	–	–	–	–
Nc1ccncc1CNc1cccc(Oc2cc(=O)[nH]c3ccccc23)c1	< 5.00	5.10	6.82	4.94	–	–	–	–	–
O=c1cc(Oc2cccc(OCc3ccccc3)c2)c2ccccc2[nH]1 [Example 57, 4-[3-(benzyloxy)phenoxy]quinolin-2(1H)-one]	–	–	–	–	262 to 265 °C	–	–	–	–
O=c1cc(Oc2cccnc2)c2ccccc2[nH]1 [Example 119, 4-(pyridin-3-yloxy)quinolin-2(1H)-one]	–	–	–	–	242 to 243 °C	–	–	–	–
O=c1cc(Oc2ccccn2)c2ccccc2[nH]1 [Example 137, 4-(pyridin-2-yloxy)quinolin-2(1H)-one]	–	–	–	–	> 360 °C	–	–	–	–
CN1CCN(c2cccc(Oc3cc(=O)[nH]c4ccccc34)c2)CC1 [Example 140, 4-[3-(4-methylpiperazin-1-yl)phenoxy]quinolin-2(1H)-one]	–	–	–	–	218 to 221 °C	–	–	–	–
CN(Cc1cccnc1)c1cccc(Oc2cc(=O)[nH]c3ccccc23)c1 [Example 161, 4-{3-[methyl(pyridin-3-ylmethyl)amino]phenoxy}quinolin-2(1H)-one]	–	–	–	–	187 to 193 °C (dec.)	–	–	–	–
Cn1c(=O)n(-c2ccc(C(C)(C)C#N)cc2)c2c3cc(-c4cnc5ccccc5c4)ccc3ncc21 [NVP-BEZ-235, 2-methyl-2-(4-(3-methyl-2-oxo-8-(quinolin-3-yl)-2,3-dihydro-1H-imidazo[4,5-c]quinolin-1-yl)phenyl)propanenitrile]	–	–	–	–	–	demonstrated activity	–	–	–
Oc1cccc(-c2nc(N3CCOCC3)c3oc4ncccc4c3n2)c1 [PI103, 3-(4-(4-morpholinyl)pyrido[3′,2′:4,5]furo[3,2-d]pyrimidin-2-yl)phenol]	–	–	–	–	–	–	demonstrated activity	–	–
O=c1cc(Oc2cccc(NCc3cccnc3Cl)c2)c2ccccc2[nH]1 [drawing 207]	4.96	5.28	6.89	–	–	–	–	< 4.22	–
O=c1cc(Oc2cccc(NCc3cccnc3Cl)c2)c2ccccc2[nH]1 [drawing 217]	< 5.00	–	6.82	–	–	–	–	5.00	5.38
Cc1cccc(Oc2cc(=O)[nH]c3ccccc23)c1 [drawing 249]	6.13	–	6.62	–	–	–	–	4.70	5.12
Cc1cccc(Oc2cc(=O)[nH]c3ccccc23)c1 [drawing 313]	< 5.00	–	6.30	4.40	–	–	–	–	4.22
CN(Cc1cccnc1)c1cccc(Oc2cc(=O)[nH]c3ccccc23)c1 [drawing 372]	5.71	4.89	6.38	4.70	–	–	–	–	–
O=c1cc(Oc2cccnc2)c2ccccc2[nH]1 [drawing 388]	< 5.00	< 4.22	5.94	< 4.22	–	–	–	–	–
